Experimental data published in patent publication US12448395B2 (BRISTOL-MYERS SQUIBB COMPANY, priority 2019, dated 2025).

Legend:
[1] = target: T1, TLR7 (Mus musculus, UniProt P58681); assay: In vivo mouse TLR7 PD model (gardiquimod-induced plasma IL-6 and IFN-alpha); details: C57BL/6 mice, 90 min after gardiquimod
T1 sequence (P58681 27-1050): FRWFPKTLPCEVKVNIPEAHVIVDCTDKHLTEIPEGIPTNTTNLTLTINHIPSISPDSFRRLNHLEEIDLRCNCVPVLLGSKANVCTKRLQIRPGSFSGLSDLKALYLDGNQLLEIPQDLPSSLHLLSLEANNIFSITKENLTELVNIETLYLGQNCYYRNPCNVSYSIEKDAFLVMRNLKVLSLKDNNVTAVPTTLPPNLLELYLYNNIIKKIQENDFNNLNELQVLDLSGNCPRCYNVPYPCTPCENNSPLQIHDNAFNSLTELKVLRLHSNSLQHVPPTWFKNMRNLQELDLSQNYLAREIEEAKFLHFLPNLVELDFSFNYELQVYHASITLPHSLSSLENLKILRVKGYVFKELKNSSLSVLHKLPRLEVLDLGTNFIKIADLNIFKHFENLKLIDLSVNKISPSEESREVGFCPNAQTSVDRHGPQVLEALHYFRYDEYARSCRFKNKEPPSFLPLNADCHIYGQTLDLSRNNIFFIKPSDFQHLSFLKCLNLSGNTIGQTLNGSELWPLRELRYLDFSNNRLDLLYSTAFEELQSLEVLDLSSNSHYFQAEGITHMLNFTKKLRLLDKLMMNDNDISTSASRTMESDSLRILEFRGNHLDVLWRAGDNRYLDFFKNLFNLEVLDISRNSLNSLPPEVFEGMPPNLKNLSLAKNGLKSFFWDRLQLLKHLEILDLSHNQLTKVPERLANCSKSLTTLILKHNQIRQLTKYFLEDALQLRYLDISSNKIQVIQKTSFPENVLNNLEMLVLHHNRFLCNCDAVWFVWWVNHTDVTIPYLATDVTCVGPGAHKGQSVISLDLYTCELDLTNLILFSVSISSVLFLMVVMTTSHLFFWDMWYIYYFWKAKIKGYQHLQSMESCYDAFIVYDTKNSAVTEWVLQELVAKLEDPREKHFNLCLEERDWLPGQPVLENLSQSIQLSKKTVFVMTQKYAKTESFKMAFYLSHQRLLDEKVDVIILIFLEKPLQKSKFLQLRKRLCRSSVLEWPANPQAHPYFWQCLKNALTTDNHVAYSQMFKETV
Protocol: In Vivo Mouse TLR7 PD Model:
Adult male C57BL/6 mice were used for the experiments. Mice (7 to 10 per group) were randomized into different treatment groups based on body weight. Mice from the respective treatment groups were administered orally with vehicle or test compound. Thirty min after the oral administration of vehicle or test compound, mice were challenged with intraperitoneal injection of gardiquimod for TLR7 PD model. Ninety minutes after gardiquimod injection, mice were bled under isoflurane anaesthesia and plasma IL-6 and IFN-alpha levels were estimated by using commercially available ELISA kit (BD Biosciences, PBL Life Sciences). At the end of experiment, mean cytokine data was plotted and one way ANOVA with Dunnett's test was performed to calculate the significance of test compound treated group vs. vehicle control group. Percent inhibition of cytokine induction was calculated for test compound treated group vs vehicle control group.

[2] = target: T2, human TLR8 (Homo sapiens, UniProt Q9NR97); assay: TLR8 inhibition reporter assay (HEK-Blue SEAP, R848 stimulation); format: cell-based; details: HEK-Blue cells overexpressing human TLR8, R848 15.9 μM
T2 sequence (Q9NR97 27-1041): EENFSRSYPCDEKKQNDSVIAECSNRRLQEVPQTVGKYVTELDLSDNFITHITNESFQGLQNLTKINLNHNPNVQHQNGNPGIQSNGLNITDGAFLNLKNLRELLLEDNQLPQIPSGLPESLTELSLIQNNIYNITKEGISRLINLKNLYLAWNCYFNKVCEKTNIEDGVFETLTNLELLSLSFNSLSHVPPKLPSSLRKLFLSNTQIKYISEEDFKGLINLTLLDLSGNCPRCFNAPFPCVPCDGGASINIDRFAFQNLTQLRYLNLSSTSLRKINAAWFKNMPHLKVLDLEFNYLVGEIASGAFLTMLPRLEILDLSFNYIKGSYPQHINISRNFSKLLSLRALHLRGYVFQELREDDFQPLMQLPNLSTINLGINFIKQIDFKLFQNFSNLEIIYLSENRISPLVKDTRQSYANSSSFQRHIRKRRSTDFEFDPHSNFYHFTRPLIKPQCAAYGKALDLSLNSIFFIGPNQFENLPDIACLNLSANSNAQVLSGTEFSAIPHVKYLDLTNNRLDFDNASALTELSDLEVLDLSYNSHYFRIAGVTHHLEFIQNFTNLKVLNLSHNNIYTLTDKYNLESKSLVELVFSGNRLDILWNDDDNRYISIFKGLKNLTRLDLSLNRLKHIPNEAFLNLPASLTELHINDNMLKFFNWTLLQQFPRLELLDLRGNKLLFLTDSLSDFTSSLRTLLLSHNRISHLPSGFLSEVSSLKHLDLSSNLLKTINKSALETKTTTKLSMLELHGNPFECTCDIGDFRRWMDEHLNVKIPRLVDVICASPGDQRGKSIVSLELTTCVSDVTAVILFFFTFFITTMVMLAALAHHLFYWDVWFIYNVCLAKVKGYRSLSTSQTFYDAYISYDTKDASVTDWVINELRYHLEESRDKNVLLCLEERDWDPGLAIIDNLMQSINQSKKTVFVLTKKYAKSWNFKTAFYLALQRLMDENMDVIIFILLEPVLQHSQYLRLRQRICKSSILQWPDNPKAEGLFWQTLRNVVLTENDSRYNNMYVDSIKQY
Protocol: (§1) TLR7/8/9 Inhibition Reporter Assays
(§2) HEK-Blue™-cells (Invivogen) overexpressing human TLR7, TLR8 or TLR9 receptors were used for screening inhibitors of these receptors using an inducible SEAP (secreted embryonic alkaline phosphatase) reporter gene under the control of the IFN-β minimal promoter fused to five NF-κB and AP-1-binding sites. Briefly, cells are seeded into Greiner 384 well plates (15000 cells per well for TLR7, 20,000 for TLR8 and 25,000 for TLR9) and then treated with test compounds in DMSO to yield a final dose response concentration range of 0.05 nM-50 μM. After a 30 minute compound pre-treatment at room temperature, the cells are then stimulated with a TLR7 ligand (gardiquimod at a final concentration of 7.5 μM), TLR8 ligand (R848 at a final concentration of 15.9 μM) or TLR9 ligand (ODN2006 at a final concentration of 5 nM) to activate NF-κB and AP-1 which induce the production of SEAP. After a 22 hour incubation at 37° C., 5% CO2, SEAP levels are determined with the addition of HEK-Blue™ Detection reagent (Invivogen), a cell culture medium that allows for detection of SEAP, according to manufacturer's specifications. The percent inhibition is determined as the % reduction in the HEK-Blue signal present in wells treated with agonist plus DMSO alone compared to wells treated with a known inhibitor.

[3] = target: T3, human TLR7 (Homo sapiens, UniProt Q9NYK1); assay: TLR7 inhibition reporter assay (HEK-Blue SEAP, gardiquimod stimulation); format: cell-based; details: HEK-Blue cells overexpressing human TLR7, gardiquimod 7.5 μM
T3 sequence (Q9NYK1 27-1049): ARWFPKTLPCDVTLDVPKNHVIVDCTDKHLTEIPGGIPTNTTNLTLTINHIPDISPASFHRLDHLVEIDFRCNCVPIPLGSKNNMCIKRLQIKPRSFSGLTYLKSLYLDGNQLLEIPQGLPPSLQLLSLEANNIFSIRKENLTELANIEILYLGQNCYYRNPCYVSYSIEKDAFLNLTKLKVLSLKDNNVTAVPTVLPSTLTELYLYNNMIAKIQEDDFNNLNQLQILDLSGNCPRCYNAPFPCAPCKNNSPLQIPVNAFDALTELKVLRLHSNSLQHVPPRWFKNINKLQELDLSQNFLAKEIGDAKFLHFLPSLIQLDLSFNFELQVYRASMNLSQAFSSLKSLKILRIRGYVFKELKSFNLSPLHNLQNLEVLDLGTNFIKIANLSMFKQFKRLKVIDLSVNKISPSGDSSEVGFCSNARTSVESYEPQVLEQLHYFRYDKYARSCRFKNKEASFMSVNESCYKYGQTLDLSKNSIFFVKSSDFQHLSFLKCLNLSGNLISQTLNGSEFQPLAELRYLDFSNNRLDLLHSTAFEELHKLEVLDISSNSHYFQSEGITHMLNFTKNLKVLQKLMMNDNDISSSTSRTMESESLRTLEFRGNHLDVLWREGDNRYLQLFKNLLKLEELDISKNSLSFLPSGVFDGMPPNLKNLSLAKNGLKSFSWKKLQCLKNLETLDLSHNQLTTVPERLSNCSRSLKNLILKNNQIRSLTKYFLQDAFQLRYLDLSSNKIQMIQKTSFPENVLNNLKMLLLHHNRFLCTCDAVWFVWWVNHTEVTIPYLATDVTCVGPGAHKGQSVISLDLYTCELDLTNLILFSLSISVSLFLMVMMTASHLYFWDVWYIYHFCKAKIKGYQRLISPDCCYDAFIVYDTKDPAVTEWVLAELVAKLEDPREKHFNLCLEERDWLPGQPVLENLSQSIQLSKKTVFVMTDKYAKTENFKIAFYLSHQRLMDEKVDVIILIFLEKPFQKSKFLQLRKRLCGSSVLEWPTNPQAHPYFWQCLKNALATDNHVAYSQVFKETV
Protocol: as §1, §2

% inhibition of IFN-alpha ([1]; oral dose 0.001 mg/kg) [%] | % inhibition of IL6 ([1]; oral dose 0.001 mg/kg) [%] | % inhibition of IFN-alpha ([1]; oral dose 0.005 mg/kg) [%] | % inhibition of IL6 ([1]; oral dose 0.005 mg/kg) [%] | % inhibition of IFN-alpha ([1]; oral dose 0.025 mg/kg) [%] | % inhibition of IL6 ([1]; oral dose 0.025 mg/kg) [%] | % inhibition of IFN-alpha ([1]; oral dose 0.050 mg/kg) [%] | % inhibition of IL6 ([1]; oral dose 0.050 mg/kg) [%] | IC50 [2] [µM] | IC50 [3] [µM] | SMILES
50 | 21 | 63 | 42 | 97 | 78 | 99 | 94 | – | – | COc1cc(-c2[nH]c3sc(C4CCC(NC5COC5)CC4)nc3c2C(C)C)cn2ncnc12 (single isomer, unassigned) [Example 65, N-(4-(6-isopropyl-5-(8-methoxy-[1,2,4]triazolo[1,5-a]pyridin-6-yl)-4H-pyrrolo[3,2-d]thiazol-2-yl)cyclohexyl)oxetan-3-amine]
– | – | – | – | – | – | – | – | > 3.13 | > 3.13 | COc1cc(-c2c(C(C)C)c3nc(C4CCN(CC(F)(F)F)CC4)sc3n2CC(F)(F)F)cn2ncnc12 [Example 9, 6-isopropyl-5-(8-methoxy-[1,2,4]triazolo[1,5-a]pyridin-6-yl)-4-(2,2,2-trifluoroethyl)-2-(1-(2,2,2-trifluoroethyl)piperidin-4-yl)-4H-pyrrolo[3,2-d]thiazole]
– | – | – | – | – | – | – | – | > 3.13 | > 3.13 | Cc1cc(-c2[nH]c3sc(N4CCN(C5CCC5)C[C@H]4C)nc3c2C(C)C)cn2ncnc12 [Example 362, (R)-2-(4-cyclobutyl-2-methylpiperazin-1-yl)-6-isopropyl-5-(8-methyl-[1,2,4]triazolo[1,5-a]pyridin-6-yl)-4H-pyrrolo[3,2-d]thiazole]
